Key:
[1] = tested on: IgG response to murine surrogate FAP-OX40; test: ADA against murine surrogate FAP-OX40 in wild-type mice, ELISA (Example 6); assay type: in vivo, C57BL/6 mice; conditions: 40 mg/kg/day via food admix from one week before first immunization until day 23
Protocol: 10-week-old female mice C57BL/6 were purchased from Charles River Laboratories (Germany) and housed at the animal facilities in room with air-conditioned under a 12 hours light/dark cycle in macrolon boxes with enriched environment and free access to water and food. 12.5 mg/kg of muFAP-OX40iMab (P1AD4396-005) were injected at day 1, 4 and 8 intravenously to the group 2 (n=10 mice) and at day 1, 4, 8, 11, 15, 18 and 22 to the group 3 (n=10 mice) respectively. The dosage of (2S,4R)-4-[4-(1-methyl-1H-pyrazol-4-yl)-2-trifluoromethyl-benzenesulfonyl]-1-(1-trifluoromethyl-cyclopropanecarbonyl)-pyrrolidine-2-carboxylic acid (1-cyano-cyclopropyl)-amide consumption was 40 mg/kg/day. […]
Nunc Maxisorp flat-bottom 96 well ELISA plates were coated with 100 μl per well of FAP(28H1)-OX40(49B4) PGLALA (P1AD4523) or anti OX40 moIgG2a (P1AD4561) respectively at 5 μg/mL in NaHCO3100 mM buffer overnight at +4° C. […] 100 μl of substrate P-nitrophenyl phosphate ready to use (Life Technologies, Cat no 002212) were added per well and after 10 min incubation at room temperature, the OD at 405 nm was read as an end-point measurement with a Versamax ELISA reader.

[2] = tested on: IgG response to murine hemi-surrogate CEA-TCB; test: ADA against murine hemi-surrogate CEA-TCB in hIgG1 Tg mice, ELISA (Example 8); assay type: in vivo, C57BL/6-Tg (hIgG1,k,l) mice; conditions: 40 mg/kg/day via food admix from one week before first immunization until day 28, vs vehicle
Protocol: 11-15-week-old mice C57BL/6-Tg (hIgG1,k,l) mixed gender (n=20) were purchased from Taconic (Denmark) and housed at the animal facilities in room with air-conditioned under a 12 hours light/dark cycle in macrolon boxes with enriched environment and free access to water and food. 7×10 μg of CEA-TCB (P1AE3536, huCEA binder CH1A1A/mouse CD3 binder 2C11) were injected at day 0, 4, 7, 11, 14, 18 and 21 subcutaneously in the right flank or the left flank alternatively. The dosage of (2S,4R)-4-[4-(1-methyl-1H-pyrazol-4-yl)-2-trifluoromethyl-benzenesulfonyl]-1-(1-trifluoromethyl-cyclopropanecarbonyl)-pyrrolidine-2-carboxylic acid (1-cyano-cyclopropyl)-amide consumption was 40 mg/kg/day. […]
Nunc Maxisorp flat-bottom 96 well ELISA plates were coated with 100 μl per well of huCEA IgG PGLALA (P1AD9477) or hu anti mouse CD3 (P1AE2779-001-01) respectively at 5 μg/mL in NaHCO3100 mM buffer overnight at +4° C. […] 100 μl of substrate P-nitrophenyl phosphate ready to use (Life Technologies, Cat no 002212) were added per well and after 10 min incubation at room temperature, the OD at 405 nm was read as an end-point measurement with a Versamax ELISA reader.

## Cn1cc(-c2ccc(S(=O)(=O)[C@@H]3C[C@@H](C(=O)NC4(C#N)CC4)N(C(=O)C4(C(F)(F)F)CC4)C3)c(C(F)(F)F)c2)cn1 [cathepsin S inhibitor, (2S,4R)-4-[4-(1-methyl-1H-pyrazol-4-yl)-2-trifluoromethyl-benzenesulfonyl]-1-(1-trifluoromethyl-cyclopropanecarbonyl)-pyrrolidine-2-carboxylic acid (1-cyano-cyclopropyl)-amide]
[1]
  ADA specific to FAP (VHVL) domain of murine surrogate FAP-OX40: prevents ADA
  OX40-specific ADA to murine surrogate FAP-OX40: prevents ADA
[2]
  ADA specific to CD3 binder (2C11) of CEA-TCB: significantly reduced ADA to CD3 binder
  CEA-specific ADA to CEA-TCB: reduction of CEA-specific ADA was not significant
